Tests used:
[1] = polycarbonate membrane, 200 μm-thick mucus layer, room temperature
Experimental: The adhesion module was built with a functional double layer separating the completely anaerobic upper chamber (95% N2-5% CO2) from the aerobic lower chamber (95% O2-5% CO2). Oxygen concentration in the upper chamber was measured by means of a Hach Lange luminescent LDO oxygen probe. Experiments were conducted at room temperature with a 200 μm-thick mucus layer using a polycarbonate or a polyamide membrane.

[2] = system: suspension of the ascending colon compartment of a SHIME system; test: Adhesion potential of a mixed microbial community under short-term prebiotic treatment in the adhesion module; conditions: ascending colon SHIME suspension in luminal chamber, data not shown
From the text: A second objective of working with the in vitro adhesion module is to explore the adhesion potential of selected microbial cultures in the presence of a complex microbial community relevant for the terminal ileum and colon respectively and to evaluate the host cellular response towards this community. To this end, a suspension of the ascending colon compartment of a SHIME system was sampled and inoculated in the luminal chamber of the adhesion module in presence of inulin with a degree of polymerization between 2 and 20, and arabinoxylans (AX) with a degree of substitution of 0.7, and a strongly varying degree of polymerization (on average 200). The short-term effect of these functional foods was evaluated.

[3] = system: mucin-adhered microbiota of the SHIME; test: Long-term prebiotic treatment in the SHIME with adhesion modules, plate counts, Adhesion Related Prebiotic Index; parameters: species or system human; conditions: 2.5 g/L; for Adhesion Related Prebiotic Index (AR-PI): mucin-adhered microbial community, plate counts before and after the treatment
From the text: The aim of this study was to evaluate the effect of known prebiotic compounds (inulin and arabinoxylan—AX) on the microbiota associated with the gut wall in different areas of the GI tract and under long-term representative conditions. For this purpose, the adhesion module was used together with a well-validated gastrointestinal model—the Simulator of the Human Intestinal Microbial Ecosystem (SHIME). Clearly, the inherent adhesion potency, the specific growth rate, the state of mucus layer and interaction with endogenous microorganisms (adhered or in suspension) determined the microbial potency to colonize the intestinal epithelium.
The reactor setup is adapted from the system, representing the gastrointestinal tract of the adult human, as described by Molly et al. (1993). The SHIME consists of a succession of five reactors simulating the different parts of the human gastrointestinal tract. The first two reactors are of the fill-and-draw principle to simulate different steps in food uptake and digestion, with peristaltic pumps adding a defined amount of SHIME feed (140 mL 3×/day) and pancreatic and bile liquid (60 mL 3×/day), respectively to the stomach (V1) and duodenum (V2) compartment and emptying the respective reactors after specified intervals. The last three compartments are continuously stirred reactors with constant volume and pH control. Retention time and pH of the different vessels are chosen in order to resemble in vivo conditions in the different parts of the gastrointestinal tract. The overall residence time of the last three vessels, simulating the large intestine, is 76 h. Upon inoculation with fecal microbiota, these reactors simulate the ascending (V3), transverse (V4) and descending (V5) colon. Inoculum preparation, retention time, pH, temperature settings and reactor feed composition were previously described by Possemiers et al. (2004). […]
During the basal period, the SHIME reactor is operated under nominal conditions. Parameters such as short chain fatty acid (SCFA) production and ammonium production are determined 3 times/week and plate count analyses are performed once a week for selected bacterial groups (total (an) aerobes, total Clostridia, lactobacilli, bifidobacteria, total coliforms, staphylococci). The results of these analyses serve as the background values to be used to compare the measured parameters from the treatment period. […]
During the treatment period, the SHIME reactor is operated under nominal conditions, but with a modified diet containing a lower amount of starch in the medium compared to that of the basal period and the effect of a specific compound (inulin or arabinoxylan—2.5 g/L) is tested. SCFA and ammonium production are determined 3 times/week and plate count analysis is performed once a week. […]

[4] = Adhesion of a pure bacterial culture to the mucus-covered layer of the adhesion module; conditions: contact time […]
Experimental: A first objective of working with the in vitro adhesion module is to explore the adhesion potential of pure cultures of gut microorganisms vs mixed microbial communities onto a mucus-covered layer. A culture of Lactobacillus rhamnosus GG was grown in relevant medium and inoculated in the luminal chamber of the adhesion module. The luminal chamber of a second system was inoculated with an in vitro adapted microbial community originated from the ascending colon of a Simulator of the Human Intestinal Microbial Ecosystem (SHIME) reactor. The adhesion module consisted of a luminal chamber containing the growth medium and the inoculated bacterial strain and a basal chamber from which oxygen could diffuse across a semi-permeable polycarbonate membrane, which was covered on its luminal side with a mucin layer, relevant for the specific region of the gastrointestinal tract. The contact time between the inoculated bacteria and the functional layer was established in 1.5 h. […] The obtained suspension was analyzed for microbial concentration using plate counts specific for different bacterial groups. […] Although not further analyzed at this moment, also the medium and optionally present cells of the basal chamber can be sampled and analyses can be conducted to estimate the simulated host's cellular response.

**Q.** With `O=O` [Oxygen] as the molecule, how does the “relative diffusion coefficient (DO2)” value [1] read?
**A.** 9.8.10^−6 cm^2/sec

**Q.** Which “effect on adhesion capacity of the investigated bacterial groups” value [2] does the source give for inulin here?
**A.** less or no influence

**Q.** What about the “Adhesion Related Prebiotic Index (AR-PI)” value [3] of the same molecule?
**A.** 14

**Q.** Which results are given for Lactobacillus rhamnosus GG?
**A.** factor by which adhesion to the mucin-agar layer is higher than to mucin-free agar [4]: 6.19; percentage adhesion ([4]; mucin-agar layer, plate counts): 15.7±3.2%

**Q.** For arabinoxylan [AX], which “effect on adhesion capacity of the investigated bacterial groups” value [2] is on record?
**A.** decreased the adhesion capacity of all the investigated groups

**Q.** And the “effect on the luminal and mucin-associated bacteria compared to that of inulin” value ([3]; long-term SHIME treatment)?
**A.** stronger and more permanent

**Q.** And the “stimulation of the adhered lactobacilli” value ([3]; long-term SHIME treatment)?
**A.** particularly potent

**Q.** And the “Adhesion Related Prebiotic Index (AR-PI)” value [3]?
**A.** 70
